Data: US6908919B2, “Substituted polycyclic aryl and heteroaryl pyrazinones useful for selective inhibition of the coagulation cascade” (Pharmacia Corporation, priority 1999, dated 2005)
Read-outs that look alike come from different tables or passages of the source.

Experiments:
[1] = target: T1, recombinant soluble tissue factor and recombinant human factor VIIa (TF-VIIa) (Homo sapiens, UniProt P08709); experiment: TF-VIIa Assay; assay type: biochemical; settings: for % Inhibition TF-VIIa (30 µM): at 30 µM inhibitor
T1 construct: conversion of coagulation factor VII to VIIa by Xa; purchased American Diagnostica, Greenwich Conn; host or cells: VIIa purchased; soluble TF made in house in E. coli

Human factor Xa = Human factor Xa (Homo sapiens, UniProt P00742); experiment: Xa Assay; assay type: biochemical; design: purchased Enzyme Research Laboratories, South Bend Ind; settings: for inhibition at 100 µM: at 100 μM inhibitor; for % Inhibition Factor Xa (30 µM): at 30 µM inhibitor
Human factor Xa, sequence (P00742 41-179 limits assumed): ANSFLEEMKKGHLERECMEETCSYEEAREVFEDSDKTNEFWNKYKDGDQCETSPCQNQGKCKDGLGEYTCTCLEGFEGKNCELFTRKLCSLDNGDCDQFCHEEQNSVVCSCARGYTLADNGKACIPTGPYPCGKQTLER
Human factor Xa, sequence (P00742 235-488 limits assumed): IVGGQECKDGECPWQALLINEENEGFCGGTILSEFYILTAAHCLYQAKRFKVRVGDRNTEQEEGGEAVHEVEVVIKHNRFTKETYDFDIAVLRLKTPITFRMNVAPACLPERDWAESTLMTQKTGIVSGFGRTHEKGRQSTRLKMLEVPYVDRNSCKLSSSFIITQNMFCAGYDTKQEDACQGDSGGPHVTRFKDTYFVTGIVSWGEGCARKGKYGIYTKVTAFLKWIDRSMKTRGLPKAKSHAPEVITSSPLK

T1 sequence (P08709 61-212 limits assumed): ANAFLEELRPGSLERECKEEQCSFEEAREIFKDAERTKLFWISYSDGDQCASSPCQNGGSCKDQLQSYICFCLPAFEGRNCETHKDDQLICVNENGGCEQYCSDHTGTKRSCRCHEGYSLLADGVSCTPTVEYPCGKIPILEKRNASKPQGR
T1 sequence (P08709 213-466 limits assumed): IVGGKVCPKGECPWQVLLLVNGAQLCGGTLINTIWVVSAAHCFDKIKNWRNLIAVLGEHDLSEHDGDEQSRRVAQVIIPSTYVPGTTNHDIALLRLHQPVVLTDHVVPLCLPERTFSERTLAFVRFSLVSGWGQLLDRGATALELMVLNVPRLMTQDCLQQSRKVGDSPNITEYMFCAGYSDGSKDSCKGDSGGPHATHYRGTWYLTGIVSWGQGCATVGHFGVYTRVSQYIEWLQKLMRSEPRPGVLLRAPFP
T1 sequence (P13726 33-251 partner limits assumed): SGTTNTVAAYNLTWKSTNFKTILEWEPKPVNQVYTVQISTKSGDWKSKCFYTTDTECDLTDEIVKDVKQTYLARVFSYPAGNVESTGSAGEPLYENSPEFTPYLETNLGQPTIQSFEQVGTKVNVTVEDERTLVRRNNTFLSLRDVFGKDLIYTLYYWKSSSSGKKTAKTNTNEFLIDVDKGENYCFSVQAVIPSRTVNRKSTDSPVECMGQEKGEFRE

SMILES	% Inhibition TF-VIIa (100 µM) ([1]; inhibitor at 100 µM) [%]	% Inhibition Factor Xa (100 µM) (Human factor Xa; inhibitor at 100 µM) [%]	further results
CC(C)Nc1nc(Cl)c(-c2cc(N)cc(C(=O)NCc3ccc4ccccc4c3)c2)n(CC(=O)NCc2ccc(C(=N)N)cc2)c1=O [Example 128-23]	–	–	IC50 ([1]; read-out: IC50 TF-VIIa): 0.0337 µM
O=C(Cn1c(-c2ccccc2)c(Cl)nc(NCCc2ccccc2)c1=O)NCCc1ccncc1 [Example E-0010]	0	0	–
O=C(Cn1c(-c2ccc(-c3ccccc3)cc2)c(Cl)nc(NCc2ccccc2)c1=O)NCCc1ccncc1 [Example E-0109]	–	–	% Inhibition TF-VIIa (100 µM) [1]: 2%; % Inhibition Factor Xa (100 µM) (Human factor Xa): 3%
O=C(Cn1c(CCc2ccccc2)c(Cl)nc(NCCc2ccc(Cl)cc2)c1=O)NCCc1ccncc1 [Example E-0068]	0	0	–
O=C(Cn1c(-c2ccc(-c3ccccc3)cc2)c(Cl)nc(NCc2ccncc2)c1=O)NCCc1ccncc1 [Example E-0056]	–	–	% Inhibition TF-VIIa (100 µM) [1]: 0%; % Inhibition Factor Xa (100 µM) (Human factor Xa): 0%
O=C(Cn1c(-c2ccc3c(c2)OCO3)c(Cl)nc(NCCc2cccnc2)c1=O)NCCc1ccncc1 [Example E-0045]	0	0	–
COc1ccc(-c2c(Cl)nc(NCc3ccccc3)c(=O)n2CC(=O)NCCc2ccncc2)cc1 [Example E-0097]	0	3	–
O=C(Cn1c(-c2cccc(Cl)c2)c(Cl)nc(NCCc2ccc(Cl)cc2)c1=O)NCCc1cccnc1 [Example E-0083]	2	3	–
O=C(Cn1c(Cc2ccccc2)c(Cl)nc(NCc2ccncc2)c1=O)NCCc1ccncc1 [Example E-0064]	0	0	–
O=C(Cn1c(-c2ccc(Cl)cc2)c(Cl)nc(NCCc2ccncc2)c1=O)NCCc1ccncc1 [Example E-0030]	0	0	–
CC(CNc1nc(Cl)c(-c2cccc(N)c2)n(CC(=O)NCc2ccc(C(=N)N)cc2)c1=O)C(=O)O (centres unmarked) [Example 129]	–	–	IC50 ([1]; cell adds 'at 100 μM'): 0.058 µM; inhibition at 100 µM (Human factor Xa): 22%
N=C(N)c1ccc(CNC(=O)Cn2c(-c3ccc(C(F)(F)F)cc3)c(Cl)nc(NC3CCC3)c2=O)cc1 [1515-20]	–	–	% Inhibition TF-VIIa (30 µM) [1]: 32%
Cc1c(Cl)nc(NCCc2ccccc2)c(=O)n1CC(=O)NCCc1ccncc1 [Example E-0002]	0	0	–
COc1ccc(CCNC(=O)c2cc(N)cc(-c3c(Cl)nc(NC(C)C)c(=O)n3CC(=O)NCc3ccc(C(=N)N)cc3)c2)cc1 [Example 128-20]	–	–	IC50 ([1]; read-out: IC50 TF-VIIa): 0.033 µM; inhibition at 100 µM (Human factor Xa): 39%
O=C(Cn1c(-c2cccc(Cl)c2)c(Cl)nc(NCCc2cccc(Cl)c2)c1=O)NCCc1ccncc1 [Example E-0091]	1	4	–
Cc1cccc(Cl)c1CNc1nc(Cl)c(-c2ccccc2)n(CC(=O)NCc2ccc(C(=N)N)cc2)c1=O [1512-31]	–	–	% Inhibition TF-VIIa (30 µM) [1]: 43%; % Inhibition Factor Xa (30 µM) (Human factor Xa): 14%
O=C(Cn1c(Cc2ccccc2)c(Cl)nc(NCCc2ccncc2)c1=O)NCCc1ccncc1 [Example E-0062]	0	0	–
COC(=O)c1cc(N)cc(-c2c(Cl)nc(NC(C)C)c(=O)n2CC(=O)NCc2ccc(C(=N)N)cc2)c1 [Example 125]	–	–	IC50 ([1]; read-out: IC50 TF-VIIa): 0.038 µM; inhibition at 100 µM (Human factor Xa): 36%
Cc1c(Cl)nc(NCCc2ccncc2)c(=O)n1CC(=O)NCCc1ccncc1 [Example E-0006]	2	0	–
O=C(Cn1c(-c2ccc(Cl)cc2)c(Cl)nc(NCc2ccccc2)c1=O)NCCc1ccncc1 [Example E-0025]	0	0	–
N=C(N)c1ccc(CNC(=O)Cn2c(-c3ccccc3)c(Cl)nc(NCc3cccc4ccccc34)c2=O)cc1 [1507-28]	–	–	% Inhibition TF-VIIa (30 µM) [1]: 38%
COc1ccc(-c2c(Cl)nc(NCCc3cccc(Cl)c3)c(=O)n2CC(=O)NCCc2ccncc2)cc1 [Example E-0035]	4	0	–
O=C(Cn1c(-c2ccc(-c3ccccc3)cc2)c(Cl)nc(NCCc2ccccc2)c1=O)NCCc1ccncc1 [Example E-0112]	–	–	% Inhibition TF-VIIa (100 µM) [1]: 11%; % Inhibition Factor Xa (100 µM) (Human factor Xa): 1%
O=C(Cn1c(-c2ccc(Cl)cc2)c(Cl)nc(NCCc2ccc(Cl)cc2)c1=O)NCCc1ccncc1 [Example E-0028]	0	0	–
CC(C)Nc1nc(Cl)c(-c2cccc([N+](=O)[O-])c2)n(CC(=O)NCc2ccc(C(N)=NO)cc2)c1=O [Example 61]	–	–	% Inhibition TF-VIIa (30 µM) [1]: 1%; % Inhibition Factor Xa (30 µM) (Human factor Xa): 0%
O=C(Cn1c(-c2ccccc2)c(Cl)nc(NCCc2ccncc2)c1=O)NCCc1ccncc1 [Example E-0014]	0	0	–
CC(=O)Nc1cccc(-c2c(Cl)nc(NC(C)C)c(=O)n2CC(=O)NCCc2ccc(C(=N)N)cc2)c1 [Example 68]	–	–	% Inhibition TF-VIIa (30 µM) [1]: 32%; % Inhibition Factor Xa (30 µM) (Human factor Xa): 6%
O=C(Cn1c(-c2ccccc2)c(Cl)nc(NCCc2cccnc2)c1=O)NCCc1ccncc1 [Example E-0013]	0	0	–
